Test system: 171881-019-R-J1-PDC complex spheroid viability
Assay: Anticancer human tumor 171881-019-R-J1-PDC patient-derived invasive breast carcinoma cell line growth inhibition
Settings: for IC50: curve of first compound; for viability, T/C: stronger effect = lower value
How it was run: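 Drug combinations with the LSD1 inhibitor iadademstat tested on tumor cells co-cultured as spheroids with endothelial cells and mesenchymal stem cells. Concentrations descended in half-log increments from clinical Cmax or 10 microM.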

[1] = second compound 0.1 µM, first compound 0.00316 µM
[2] = second compound 0.1 µM, first compound 0.01 µM
[3] = second compound 0.1 µM, first compound 0.0316 µM
[4] = second compound 0.1 µM, first compound 0.1 µM
[5] = second compound 0.316 µM, first compound 0.00316 µM
[6] = second compound 0.316 µM, first compound 0.01 µM
[7] = second compound 0.316 µM, first compound 0.0316 µM
[8] = second compound 0.316 µM, first compound 0.1 µM
[9] = second compound 1 µM, first compound 0.00316 µM
[10] = second compound 1 µM, first compound 0.01 µM
[11] = second compound 1 µM, first compound 0.0316 µM
[12] = second compound 1 µM, first compound 0.1 µM
[13] = second compound 3.16 µM, first compound 0.00316 µM
[14] = second compound 3.16 µM, first compound 0.01 µM
[15] = second compound 3.16 µM, first compound 0.0316 µM
[16] = second compound 3.16 µM, first compound 0.1 µM
[17] = second compound 10 µM, first compound 0.00316 µM
[18] = second compound 10 µM, first compound 0.01 µM
[19] = second compound 10 µM, first compound 0.0316 µM
[20] = second compound 10 µM, first compound 0.1 µM
[21] = second compound 0.1 µM, first compound 0.000949 µM
[22] = second compound 0.1 µM, first compound 0.003 µM
[23] = second compound 0.1 µM, first compound 0.00949 µM
[24] = second compound 0.1 µM, first compound 0.03 µM
[25] = second compound 0.1 µM, first compound 0.0949 µM
[26] = second compound 0.1 µM, first compound 0.3 µM
[27] = second compound 0.316 µM, first compound 0.000949 µM
[28] = second compound 0.316 µM, first compound 0.003 µM
[29] = second compound 0.316 µM, first compound 0.00949 µM
[30] = second compound 0.316 µM, first compound 0.03 µM
[31] = second compound 0.316 µM, first compound 0.0949 µM
[32] = second compound 0.316 µM, first compound 0.3 µM
[33] = second compound 1 µM, first compound 0.000949 µM
[34] = second compound 1 µM, first compound 0.003 µM
[35] = second compound 1 µM, first compound 0.00949 µM
[36] = second compound 1 µM, first compound 0.03 µM
[37] = second compound 1 µM, first compound 0.0949 µM
[38] = second compound 1 µM, first compound 0.3 µM
[39] = second compound 3.16 µM, first compound 0.000949 µM
[40] = second compound 3.16 µM, first compound 0.003 µM
[41] = second compound 3.16 µM, first compound 0.00949 µM
[42] = second compound 3.16 µM, first compound 0.03 µM
[43] = second compound 3.16 µM, first compound 0.0949 µM
[44] = second compound 3.16 µM, first compound 0.3 µM
[45] = second compound 10 µM, first compound 0.000949 µM
[46] = second compound 10 µM, first compound 0.003 µM
[47] = second compound 10 µM, first compound 0.00949 µM
[48] = second compound 10 µM, first compound 0.03 µM
[49] = second compound 10 µM, first compound 0.0949 µM
[50] = second compound 10 µM, first compound 0.3 µM
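Note: spheroids exposed to agents for 7 days after 3 days growth.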

CC[C@@]1(O)C(=O)OCc2c1cc1n(c2=O)Cc2cc3c(CN(C)C)c(O)ccc3nc2-1 + NC1CCC(NC2CC2c2ccccc2)CC1
IC50 (second compound 0.1 µM): > 100 nM | IC50 (second compound 0.316 µM): > 100 nM | IC50 (second compound 1 µM): > 100 nM | IC50 (second compound 3.16 µM): > 100 nM | IC50 (second compound 10 µM): > 100 nM | viability, T/C (second compound 0.1 µM, first compound 0.000316 µM): 83.9% | viability, T/C (second compound 0.1 µM, first compound 0.001 µM): 91.8% | viability, T/C [1]: 122% | viability, T/C [2]: 74.7% | viability, T/C [3]: 69.5% | viability, T/C [4]: 50.6% | viability, T/C (second compound 0.316 µM, first compound 0.000316 µM): 80.2% | viability, T/C (second compound 0.316 µM, first compound 0.001 µM): 86.1% | viability, T/C [5]: 125% | viability, T/C [6]: 71.1% | viability, T/C [7]: 67.3% | viability, T/C [8]: 56.5% | viability, T/C (second compound 1 µM, first compound 0.000316 µM): 87.5% | viability, T/C (second compound 1 µM, first compound 0.001 µM): 89.4% | viability, T/C [9]: 128% | viability, T/C [10]: 77.6% | viability, T/C [11]: 72.4% | viability, T/C [12]: 59% | viability, T/C (second compound 3.16 µM, first compound 0.000316 µM): 95.2% | viability, T/C (second compound 3.16 µM, first compound 0.001 µM): 94.5% | viability, T/C [13]: 138% | viability, T/C [14]: 83.1% | viability, T/C [15]: 75.8% | viability, T/C [16]: 62.3% | viability, T/C (second compound 10 µM, first compound 0.000316 µM): 88% | viability, T/C (second compound 10 µM, first compound 0.001 µM): 93.7% | viability, T/C [17]: 133% | viability, T/C [18]: 92.7% | viability, T/C [19]: 90.7% | viability, T/C [20]: 76.4%

CCc1c2c(nc3ccc(O)cc13)-c1cc3c(c(=O)n1C2)COC(=O)[C@]3(O)CC + NC1CCC(NC2CC2c2ccccc2)CC1
IC50 (second compound 0.1 µM): 3.45 nM | IC50 (second compound 0.316 µM): 3.88 nM | IC50 (second compound 1 µM): 4.87 nM | IC50 (second compound 3.16 µM): 5.52 nM | IC50 (second compound 10 µM): 5.75 nM | viability, T/C [21]: 64.2% | viability, T/C [22]: 53.5% | viability, T/C [23]: 32.2% | viability, T/C [24]: 20.5% | viability, T/C [25]: 8.51% | viability, T/C [26]: 6.45% | viability, T/C [27]: 67.5% | viability, T/C [28]: 55.5% | viability, T/C [29]: 33.2% | viability, T/C [30]: 20.6% | viability, T/C [31]: 9.31% | viability, T/C [32]: 6.46% | viability, T/C [33]: 69.5% | viability, T/C [34]: 61.4% | viability, T/C [35]: 34.8% | viability, T/C [36]: 22.4% | viability, T/C [37]: 10.3% | viability, T/C [38]: 7.43% | viability, T/C [39]: 75% | viability, T/C [40]: 65.3% | viability, T/C [41]: 35.5% | viability, T/C [42]: 21.9% | viability, T/C [43]: 10.3% | viability, T/C [44]: 7.23% | viability, T/C [45]: 86% | viability, T/C [46]: 66.8% | viability, T/C [47]: 35.6% | viability, T/C [48]: 21.8% | viability, T/C [49]: 9.69% | viability, T/C [50]: 6.81%

COc1cc(C2c3cc4c(cc3C(OC3OC5COC(C)OC5C(O)C3O)C3COC(=O)C23)OCO4)cc(OC)c1O (stereo not given) + NC1CCC(NC2CC2c2ccccc2)CC1
IC50 (second compound 0.1 µM): 439 nM | IC50 (second compound 0.316 µM): 440 nM | IC50 (second compound 1 µM): 511 nM | IC50 (second compound 3.16 µM): 536 nM | IC50 (second compound 10 µM): 649 nM | viability, T/C [23]: 72.8% | viability, T/C [24]: 90.8% | viability, T/C [25]: 87.9% | viability, T/C [26]: 56.8% | viability, T/C (second compound 0.1 µM, first compound 0.949 µM): 33.2% | viability, T/C (second compound 0.1 µM, first compound 3 µM): 18.5% | viability, T/C [29]: 76.8% | viability, T/C [30]: 98.2% | viability, T/C [31]: 94% | viability, T/C [32]: 58.1% | viability, T/C (second compound 0.316 µM, first compound 0.949 µM): 33.1% | viability, T/C (second compound 0.316 µM, first compound 3 µM): 18.4% | viability, T/C [35]: 87.6% | viability, T/C [36]: 87.8% | viability, T/C [37]: 86.5% | viability, T/C [38]: 57.9% | viability, T/C (second compound 1 µM, first compound 0.949 µM): 39% | viability, T/C (second compound 1 µM, first compound 3 µM): 19.8% | viability, T/C [41]: 80.7% | viability, T/C [42]: 99.1% | viability, T/C [43]: 96.4% | viability, T/C [44]: 60.3% | viability, T/C (second compound 3.16 µM, first compound 0.949 µM): 40.8% | viability, T/C (second compound 3.16 µM, first compound 3 µM): 22.2% | viability, T/C [47]: 80.9% | viability, T/C [48]: 104% | viability, T/C [49]: 95% | viability, T/C [50]: 67.8% | viability, T/C (second compound 10 µM, first compound 0.949 µM): 42.5% | viability, T/C (second compound 10 µM, first compound 3 µM): 25.8%

Nc1ccn(C2OC(CO)C(O)C2(F)F)c(=O)n1 (stereo not given) + NC1CCC(NC2CC2c2ccccc2)CC1
IC50 (second compound 0.1 µM): > 300 nM | IC50 (second compound 0.316 µM): > 300 nM | IC50 (second compound 1 µM): > 300 nM | IC50 (second compound 3.16 µM): > 300 nM | IC50 (second compound 10 µM): > 300 nM | viability, T/C [21]: 77.4% | viability, T/C [22]: 53.8% | viability, T/C [23]: 56.2% | viability, T/C [24]: 59.2% | viability, T/C [25]: 57.8% | viability, T/C [26]: 55.6% | viability, T/C [27]: 77.7% | viability, T/C [28]: 54.9% | viability, T/C [29]: 54.6% | viability, T/C [30]: 58.6% | viability, T/C [31]: 56.4% | viability, T/C [32]: 54.3% | viability, T/C [33]: 85.6% | viability, T/C [34]: 56.5% | viability, T/C [35]: 57.8% | viability, T/C [36]: 60.4% | viability, T/C [37]: 58% | viability, T/C [38]: 54.7% | viability, T/C [39]: 84.8% | viability, T/C [40]: 56% | viability, T/C [41]: 60.8% | viability, T/C [42]: 63.4% | viability, T/C [43]: 60.1% | viability, T/C [44]: 54.7% | viability, T/C [45]: 90.5% | viability, T/C [46]: 62.5% | viability, T/C [47]: 64% | viability, T/C [48]: 70% | viability, T/C [49]: 68.5% | viability, T/C [50]: 64.1%

Nc1ncn(C2CC(O)C(CO)O2)c(=O)n1 (stereo not given) + NC1CCC(NC2CC2c2ccccc2)CC1
IC50 (second compound 0.1 µM): > 1000 nM | IC50 (second compound 0.316 µM): > 1000 nM | IC50 (second compound 1 µM): > 1000 nM | IC50 (second compound 3.16 µM): > 1000 nM | IC50 (second compound 10 µM): > 1000 nM | viability, T/C [1]: 88.4% | viability, T/C [2]: 93.3% | viability, T/C [3]: 93.1% | viability, T/C [4]: 115% | viability, T/C (second compound 0.1 µM, first compound 0.316 µM): 111% | viability, T/C (second compound 0.1 µM, first compound 1 µM): 101% | viability, T/C [5]: 96% | viability, T/C [6]: 81.7% | viability, T/C [7]: 92.9% | viability, T/C [8]: 122% | viability, T/C (second compound 0.316 µM, first compound 0.316 µM): 115% | viability, T/C (second compound 0.316 µM, first compound 1 µM): 94.2% | viability, T/C [9]: 94.9% | viability, T/C [10]: 81.1% | viability, T/C [11]: 95.6% | viability, T/C [12]: 123% | viability, T/C (second compound 1 µM, first compound 0.316 µM): 117% | viability, T/C (second compound 1 µM, first compound 1 µM): 97.1% | viability, T/C [13]: 82.5% | viability, T/C [14]: 92.9% | viability, T/C [15]: 106% | viability, T/C [16]: 122% | viability, T/C (second compound 3.16 µM, first compound 0.316 µM): 114% | viability, T/C (second compound 3.16 µM, first compound 1 µM): 97.7% | viability, T/C [17]: 86.1% | viability, T/C [18]: 105% | viability, T/C [19]: 112% | viability, T/C [20]: 102% | viability, T/C (second compound 10 µM, first compound 0.316 µM): 111% | viability, T/C (second compound 10 µM, first compound 1 µM): 99.8%
